Assay results published in US9957214B2, “Multifunctional radical quenchers” (ARIZONA BOARD OF REGENTS ON BEHALF OF ARIZONA STATE …, priority 2012, dated 2018).

Assay: Lipid peroxidation induced by AAPH peroxyl radicals in phospholipid liposomes (C11-BODIPY581/591 fluorescence)
Conditions: 10 mM AAPH, phosphate buffer, 40° C.; compared with tocopherol
Protocol: FIG. 4. Effect of nitrogen-containing 3-alkyl-1,4-benzoquinone derivatives on lipid peroxidation induced by peroxyl radicals generated from thermal decomposition of AAPH in phospholipid liposomes in phosphate buffer at 40° C. […] Relative fluorescence units are normalized to 100% intensity.
Several methods for assaying lipid peroxidation in vitro have been developed (Kuypers et al. (1987) Biochim Biophys Acta. 25, 266-274; Pap et al. (1999) FEBS Lett. 453, 278-282; Drummen et al. (2002) Free RadicBiol Med. 33, 473-490). Almost all of these methods are based on inhibition of free radical-induced oxidation reactions. A widely used fluorescence assay for lipid peroxidation uses lipid soluble cis-parinaric acid as a probe. cis-parinaric acid loses its fluorescence (λexc/em: 320/432 nm) upon interaction with peroxyl radicals and retains its fluorescence in the presence of radical quenchers. cis-parinaric acid is, however, air sensitive, photolabile and absorbs light in the UV region of the spectrum (at ˜320 nm). […] C11-BODIPY^581/591 (Molecular Probes, Eugene, Oreg., USA) stock solution concentrations were determined by measuring the absorption of C11-BODIPY^581/591 at 582 nm using a molar extinction coefficient of 140,000 mol^−1 cm^−1 (R. P. Haugland, (1999) Handbook of Fluorescent Probes and Research Chemicals, Molecular Probes, Inc., Eugene, Oreg.). […]

## CCCCCCCCCCCCCC1=C(OC)C(=O)C=C(NCCCC(=O)OCCCCCC)C1=O [Compound 18, Hexyl 4-(4-methoxy-3,6-dioxo-5-tridecylcyclohexa-1,4-dienylamino)butanoate]
  Protection against lipid peroxidation in liposomes (in words): significant protection against lipid peroxidation
